These results are taken from ChEMBL document CHEMBL1157405, “ent-Kaurane diterpenoids from Isodon japonicus” (J Nat Prod, 2008).

Structures are written as SMILES.

This test has as its system RAW264.7. As to the kind of experiment: Inhibition of LPS-induced nitric oxide production in mouse RAW264.7 cells assessed as nitrite formation. Format: functional, cell-based.
What is called IC50 is the point on the concentration scale where inhibition reaches its midpoint. `C=C1C(=O)[C@]23C[C@H]1CC[C@H]2[C@@]12CO[C@@]3(O)[C@@H](O)[C@@H]1[C@](C)(COC(C)=O)CC[C@@H]2O`: the IC50 turned out to be 5.9 µM.

On to `C=C1C(=O)[C@]23[C@H](O)[C@H]1CC[C@H]2[C@@]12CO[C@@]3(O)[C@@H](O)[C@@H]1[C@](C)(COC(C)=O)CC[C@@H]2OC(C)=O` [ISODOJAPONIN A], for which the IC50 turned out to be 6.3 µM.

Regarding `C=C1C(=O)[C@@]23[C@H](O)C[C@@H]4C(C)(C)CC[C@H](O)[C@@]4(C)[C@@H]2C[C@H](OC(C)=O)[C@@H]1[C@H]3O` [EXCISANIN B], the half-inhibitory concentration (IC50) came to 3.3 µM.

With `C=C1C(=O)[C@]23C[C@H]1CC[C@H]2[C@]1(COC3=O)[C@@H](OC(C)=O)CC[C@@](C)(COC(C)=O)[C@H]1C=O`, the 50% inhibitory concentration (IC50) was determined as 20.3 µM.

Consider `C=C1C(=O)[C@]23C[C@H]1CC[C@H]2[C@]1(COC3=O)[C@@H](OC(C)=O)CC[C@@](C)(CO)[C@H]1COC(C)=O`, for which the IC50 is 8.7 µM.

In the case of `C=C1C(=O)[C@]23C[C@H]1C[C@@H](O)[C@H]2[C@]12CCC[C@@](C)(COC(C)=O)[C@H]1[C@H](O)[C@]3(O)OC2` [LONGIKAURIN D], the IC50 came to 2 µM.

For `C=C1C(=O)[C@]23C[C@H]1C[C@@H](OC(C)=O)[C@H]2[C@@]12CO[C@@]3(O)[C@@H](O)[C@@H]1[C@](C)(COC(C)=O)CC[C@@H]2O`, the IC50 amounted to 10.2 µM.

Consider `C=C1C(=O)[C@]23C[C@H]1C[C@@H](O)[C@H]2[C@]1(COC3=O)[C@@H](OC(C)=O)CC[C@@](C)(COC(C)=O)[C@H]1C=O` [LOXOTHYRIN A], for which the half-maximal inhibitory concentration (IC50) stood at 24.2 µM.

With `C=C1C(=O)[C@]23C[C@H]1CC[C@H]2[C@]12CCC[C@@](C)(COC(C)=O)[C@H]1[C@H](O)[C@]3(O)OC2` [LONGIKAURIN C], the half-inhibitory concentration (IC50) amounted to 1 µM.

Consider `C=C1C(=O)[C@]23C[C@H]1CC[C@H]2[C@@]12CO[C@]3(O)[C@@H](O)[C@@H]1[C@](C)(COC(C)=O)CC[C@@H]2OC(C)=O` [EFFUSANIN D], for which the IC50 worked out at 3.3 µM.

Turning to `C=C1C(=O)[C@]23[C@H](O)[C@H]1CC[C@H]2[C@@]12CO[C@@]3(O)[C@@H](O)[C@@H]1C(C)(C)CC[C@@H]2OC(C)=O` [LASIOKAURIN], the IC50 was 1.6 µM.

Regarding `C=C1C(=O)[C@]23[C@H](O)[C@H]1CC[C@H]2[C@]12CCC[C@@](C)(COC(C)=O)[C@H]1[C@H](O)[C@]3(O)OC2` [LONGIKAURIN B], the half-maximal inhibitory concentration (IC50) turned out to be 0.9 µM.

For `C=C1C(=O)[C@]23C[C@H]1CC[C@H]2[C@]1(COC3=O)[C@@H](OC(C)=O)CC[C@@](C)(COC(C)=O)[C@H]1CO`, the IC50 was found to be 8.2 µM.

In the case of `C=C1C(=O)[C@]23[C@@H](O)[C@H]1CC[C@H]2[C@@]12COC3(O)C[C@@H]1C(C)(C)CC[C@@H]2O`, the IC50 stood at 8.5 µM.

Consider `C=C1C(=O)[C@@]23[C@H](O)C[C@@H]4C(C)(C)[C@@H](OC(C)=O)CC[C@@]4(C)[C@@H]2CC(=O)[C@@H]1[C@H]3O` [PSEURATA C], for which the IC50 was determined as 5.4 µM.
